Data from ChEMBL document CHEMBL5346881 (Eur J Med Chem, 2023).

Columns and labels:
[1] = system: MRC5; assay: Antiproliferative activity against human MRC5 cells assessed inhibition of cell growth incubated for 48 hrs by MTT assay; type: functional, cell-based; details: MRC5, 48 h
[2] = system: PC-3; assay: Growth inhibition of human PC-3 cells incubated for 48 hrs by MTT assay; type: functional
[3] = system: SK-OV-3; assay: Growth inhibition of human SK-OV-3 cells incubated for 48 hrs by MTT assay; type: functional
[4] = Growth inhibition of human UWB1289 cells harboring BRCA1 incubated for 48 hrs by MTT assay; type: functional
[5] = system: PC-3; assay: Antiproliferative activity against human PC-3 cells assessed inhibition of cell growth incubated for 48 hrs by MTT assay; type: functional, cell-based; details: PC-3, 48 h
[6] = system: SK-OV-3; assay: Antiproliferative activity against human SK-OV-3 cells assessed inhibition of cell growth incubated for 48 hrs by MTT assay; type: functional, cell-based; details: SK-OV-3, 48 h
[7] = Antiproliferative activity against human UWB1289 cells harboring BRCA1 assessed inhibition of cell growth incubated for 48 hrs by MTT assay; type: functional, cell-based; details: UWB1289, 48 h
[8] = system: MRC5; assay: Growth inhibition of human MRC5 cells incubated for 48 hrs by MTT assay; type: functional
[9] = system: MCF7; assay: Antiproliferative activity against human MCF7 cells assessed inhibition of cell growth incubated for 48 hrs by MTT assay; type: functional, cell-based; details: MCF7, 48 h
[10] = system: MCF7; assay: Growth inhibition of human MCF7 cells incubated for 48 hrs by MTT assay; type: functional
[11] = system: LoVo; assay: Antiproliferative activity against human LoVo cells assessed inhibition of cell growth incubated for 48 hrs by MTT assay; type: functional, cell-based
[12] = system: HeLa; assay: Antiproliferative activity against human HeLa cells assessed inhibition of cell growth incubated for 48 hrs by MTT assay; type: functional, cell-based
[13] = system: MDA-MB-231; assay: Antiproliferative activity against human MDA-MB-231 cells assessed inhibition of cell growth incubated for 48 hrs by MTT assay; type: functional, cell-based; details: MDA-MB-231, 48 h
[14] = system: MDA-MB-453; assay: Antiproliferative activity against human MDA-MB-453 cells assessed inhibition of cell growth incubated for 48 hrs by MTT assay; type: functional, cell-based; details: MDA-MB-453, 48 h
[15] = system: LS174T; assay: Antiproliferative activity against human LS174T cells assessed inhibition of cell growth incubated for 48 hrs by MTT assay; type: functional, cell-based
[16] = system: HuP-T3; assay: Antiproliferative activity against human HuP-T3 cells assessed inhibition of cell growth incubated for 48 hrs by MTT assay; type: functional, cell-based; details: HuP-T3, 48 h
[17] = Acute toxicity in ip dosed CB17 SCID mouse assessed as lethal dose; type: organism-based; design: LD20: unit not given here; details: in vivo
[18] = system: P388; assay: Antitumor activity against mouse P388 cells xenografted in CB17 SCID mouse assessed as T/C ratio at 140 uM, ip administered as single dose measured after 17 days; type: functional; details: time 17 day
[19] = system: HT-29; assay: Antiproliferative activity against human HT-29 cells assessed inhibition of cell growth incubated for 48 hrs by MTT assay; type: functional, cell-based; details: HT-29, 48 h
[20] = system: PC-3; assay: Antitumor activity against human PC-3 cells xenografted in CB17 SCID mouse assessed as tumor inhibition at 36 mg/kg, ip administered as single dose measured after 21 days; type: functional; details: PC-3, 504 h, time 21 day, read-out: TGI
[21] = system: PC-3; assay: Antitumor activity against human PC-3 cells xenografted in CB17 SCID mouse assessed as reduction in tumor volume at 36 mg/kg, ip administered as single dose measured after 21 days (reference value: 683 +/- 47.3 mm3); type: functional; details: time 21 day
[22] = system: SK-OV-3; assay: Antitumor activity against human SK-OV-3 cells xenografted in CB17 SCID mouse assessed as tumor inhibition at 36 mg/kg, ip administered as single dose measured after 11 days; type: functional; details: SK-OV-3, 264 h, time 11 day, read-out: TGI
[23] = system: SK-OV-3; assay: Antitumor activity against human SK-OV-3 cells xenografted in CB17 SCID mouse assessed as reduction in tumor volume at 36 mg/kg, ip administered as single dose measured after 11 days (reference value: 790 +/- 65.6 mm3); type: functional; details: time 11 day
[24] = system: SK-OV-3; assay: Antitumor activity against human SK-OV-3 cells xenografted in CB17 SCID mouse assessed as tumor inhibition at 140 uM, ip administered as single dose measured after 17 days; type: functional; details: SK-OV-3, 408 h, time 17 day, read-out: TGI

Row | Compound | IC50 [1] | GI50 [2] | TGI [2] | GI50 [3] | TGI [3] | GI50 [4] | TGI [4] | IC50 [5] | IC50 [6] | IC50 [7] | GI50 [8] | TGI [8] | IC50 [9] | GI50 [10] | TGI [10] | IC50 [11] | IC50 [12] | IC50 [13] | IC50 [14] | IC50 [15] | other results
1 | CC(=O)O[C@@H](COc1ccc(N(CCCl)CCCl)cc1)C(=O)O[C@H]1CC[C@H]2[C@@H]3CCC4=CC(=O)NCC[C@]4(C)[C@H]3CC[C@]12C | 21.5 µM | 1.7 µM | 3.9 µM | 0.8 µM | 2.2 µM | 0.7 µM | 2.2 µM | 9 µM | 3.9 µM | 6.3 µM | 3.9 µM | 15.3 µM | 4.3 µM | 1.5 µM | 3.4 µM | – | – | – | – | – | –
2 | CC(=O)O[C@@H](COc1ccc(N(CCCl)CCCl)cc1)C(=O)O[C@H]1CC[C@H]2[C@@H]3CCC4=CC(=O)NCC[C@]4(C)[C@H]3C(=O)C[C@]12C | 52 µM | 8.2 µM | 9 µM | 3.8 µM | 9 µM | 3 µM | 7 µM | 16 µM | 33 µM | 12 µM | 27 µM | 38 µM | 12 µM | 2.2 µM | 7 µM | – | – | – | – | – | –
3 | C[C@]12CC(=O)[C@H]3[C@@H](CCC4=CC(=O)NCC[C@@]43C)[C@@H]1CC[C@@H]2OC(=O)CCOc1ccc(N(CCCl)CCCl)cc1 | – | – | – | – | – | – | – | – | 65 µM | 65 µM | – | – | – | – | – | 65 µM | 65 µM | 65 µM | 65 µM | 65 µM | IC50 [16]: 65 µM; LD20 ([17]; ip): 140; LD50 ([17]; ip): 110; T/C [18]: 356; IC50 [19]: 65 µM
4 | C[C@]12CC[C@H]3[C@@H](CCC4=CC(=O)NCC[C@@]43C)[C@@H]1CC[C@@H]2OC(=O)[C@@H](O)COc1ccc(N(CCCl)CCCl)cc1 | 22.5 µM | 2 µM | 4 µM | 1 µM | 3.5 µM | 1.2 µM | 4 µM | 11 µM | 9 µM | 51 µM | 3 µM | 10 µM | 8 µM | 1.5 µM | 3.8 µM | – | – | – | – | – | inhibition in vivo at 36 mg/kg [20]: 85.2%; Activity [21]: 181 mm3; inhibition in vivo at 36 mg/kg [22]: 95%; LD50 ([17]; CB17 SCID, read-out: LD50): 28 mg/kg; LD10 ([17]; ip): 36 mg/kg; Activity [23]: 192 mm3
5 | CC(=O)O[C@@H](COc1ccc(N(CCCl)CCCl)cc1)C(=O)Oc1ccc2c(c1)CC[C@@H]1[C@@H]2CC[C@]2(C)NC(=O)CC[C@@H]12 | 19 µM | 4.5 µM | 8.9 µM | 4 µM | 9 µM | 3 µM | 8.8 µM | 15 µM | 22 µM | 11.9 µM | 6.5 µM | 10 µM | 10 µM | 2 µM | 5.5 µM | – | – | – | – | – | –
6 | C[C@]12CC(=O)[C@H]3[C@@H](CCC4=CC(=O)NCC[C@@]43C)[C@@H]1CC[C@@H]2OC(=O)[C@@H](O)COc1ccc(N(CCCl)CCCl)cc1 | 68 µM | 4 µM | 9 µM | 3.4 µM | 12 µM | 5 µM | 13.2 µM | 28 µM | 36 µM | 56 µM | 12 µM | 44 µM | 21 µM | 6 µM | 11 µM | – | – | – | – | – | –
7 | CC(=O)O[C@@H](COc1ccc(N(CCCl)CCCl)cc1)C(=O)O | > 100 µM | > 100 µM | > 100 µM | > 100 µM | > 100 µM | > 100 µM | > 100 µM | > 100 µM | > 100 µM | > 100 µM | 50 µM | > 100 µM | > 100 µM | 80 µM | > 100 µM | – | – | – | – | – | –
8 | C[C@]12CC(=O)[C@H]3[C@@H](CCC4=CC(=O)NCC[C@@]43C)[C@@H]1CC[C@@H]2OC(=O)[C@@H](N)COc1ccc(N(CCCl)CCCl)cc1 | – | – | – | – | – | – | – | – | 4 µM | 4 µM | – | – | – | – | – | 4 µM | 4 µM | 4 µM | 4 µM | 4 µM | inhibition in vivo at 140 µM [24]: 110%; IC50 [16]: 4 µM; LD20 ([17]; ip): 10; LD50 ([17]; ip): 14; T/C [18]: 109.9; IC50 [19]: 4 µM
9 | C[C@]12CC[C@H]3[C@@H](CCC4=CC(=O)NCC[C@@]43C)[C@@H]1CC[C@@H]2OC(=O)[C@@H](N)COc1ccc(N(CCCl)CCCl)cc1 | – | – | – | – | – | – | – | – | 1 µM | 1 µM | – | – | – | – | – | 1 µM | 1 µM | 1 µM | 1 µM | 1 µM | IC50 [16]: 1 µM; LD20 ([17]; ip): 12.5; LD50 ([17]; ip): 21; T/C [18]: 410.3; IC50 [19]: 1 µM
